We go through 17 compounds from US11999715B2, “ASK1 inhibiting agents” (BIOGEN MA INC., priority 2018, dated 2024).

The target of one assay is T1, ASK1/MAP3K5 (Homo sapiens, UniProt Q99683).
T1 sequence (Q99683 1-1374): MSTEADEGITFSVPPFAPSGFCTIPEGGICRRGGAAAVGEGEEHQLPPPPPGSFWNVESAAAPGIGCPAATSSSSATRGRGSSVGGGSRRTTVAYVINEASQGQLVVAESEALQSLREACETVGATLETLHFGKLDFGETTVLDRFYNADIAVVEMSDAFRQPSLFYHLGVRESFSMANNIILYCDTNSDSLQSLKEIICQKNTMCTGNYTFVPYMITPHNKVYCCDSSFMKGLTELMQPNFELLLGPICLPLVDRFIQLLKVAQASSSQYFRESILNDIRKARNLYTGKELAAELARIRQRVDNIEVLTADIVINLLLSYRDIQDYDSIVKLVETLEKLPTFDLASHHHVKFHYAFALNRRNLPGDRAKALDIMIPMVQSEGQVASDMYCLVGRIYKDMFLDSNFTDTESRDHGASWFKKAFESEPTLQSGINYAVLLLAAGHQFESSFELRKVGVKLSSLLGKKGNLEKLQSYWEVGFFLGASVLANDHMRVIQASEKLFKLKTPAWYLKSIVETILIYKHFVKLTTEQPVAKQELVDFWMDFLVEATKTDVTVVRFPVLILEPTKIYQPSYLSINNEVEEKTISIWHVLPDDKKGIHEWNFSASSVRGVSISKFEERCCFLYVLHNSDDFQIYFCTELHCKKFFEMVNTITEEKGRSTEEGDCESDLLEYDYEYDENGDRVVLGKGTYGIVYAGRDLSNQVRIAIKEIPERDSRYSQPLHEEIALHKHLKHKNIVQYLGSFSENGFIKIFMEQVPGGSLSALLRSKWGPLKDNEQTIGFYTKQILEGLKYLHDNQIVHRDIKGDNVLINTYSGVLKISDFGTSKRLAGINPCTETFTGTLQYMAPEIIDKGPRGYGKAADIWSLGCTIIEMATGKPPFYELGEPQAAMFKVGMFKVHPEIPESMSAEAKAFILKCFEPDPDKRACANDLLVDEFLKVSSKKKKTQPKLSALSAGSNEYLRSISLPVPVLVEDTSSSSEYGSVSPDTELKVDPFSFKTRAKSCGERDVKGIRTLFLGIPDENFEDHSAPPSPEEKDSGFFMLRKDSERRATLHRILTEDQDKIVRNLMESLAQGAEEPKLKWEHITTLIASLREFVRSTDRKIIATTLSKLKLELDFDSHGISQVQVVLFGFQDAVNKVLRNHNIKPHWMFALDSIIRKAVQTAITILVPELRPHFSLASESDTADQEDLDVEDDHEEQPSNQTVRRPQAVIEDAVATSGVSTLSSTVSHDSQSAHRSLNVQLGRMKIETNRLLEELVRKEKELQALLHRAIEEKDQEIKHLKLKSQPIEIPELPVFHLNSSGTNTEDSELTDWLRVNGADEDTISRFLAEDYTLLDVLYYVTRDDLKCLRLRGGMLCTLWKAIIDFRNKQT
The assay is described as follows: ASK1/MAP3K5 kinase assay by Reaction Biology Corp. (headed ASK1 TR-FRET Assay). To be noted: 20 μM myelin basic protein, 10 μM ATP, class symbols. Type of assay: biochemical. On the procedure: Example 111: Brief Description of ASK1 TR-FRET Assay The protein kinase inhibitory activity of the compounds described herein were tested using the ASK1/MAP3K5 assay by Reaction Biology Corp. (Malvern, PA). The assay procedure follows (and is also available on the Reaction Biology Corp. website). Base Reaction Buffer: 20 mM Hepes (pH 7.5), 10 mM MgCl2, 1 mM EGTA, 0.02% Brij35, 0.02 mg/mL BSA, 0.1 mM Na3VO4, 2 mM DTT, 1% DMSO; Substrate: 20 μM of myelin basic protein (MBP) and 10 μM ATP; Protein kinase: ASK1/MAP3K5. Reaction Procedure: • 1. Prepare indicated substrate in freshly prepared Base Reaction Buffer. • 2. Deliver any required cofactors to the substrate solution. • 3. Deliver indicated kinase into the substrate solution and gently mix. • 4. Deliver compounds in DMSO into the kinase reaction mixture by Acoustic; technology (Echo550; nanoliter range), incubate for 20 minutes at room temperature. • 5. Deliver ^33P-ATP (specific activity 10 μCi/μL) into the reaction mixture to initiate the reaction. • 6. Incubate kinase reaction for 2 hours at room temperature. • 7. Reactions are spotted onto P81 ion exchange paper. • 8. Detect kinase activity by filter-binding method.

For assay [1], the target named is T2, ASK1 T838 auto phosphorylation (Homo sapiens, UniProt Q99683).
T2 sequence (Q99683 1-1374): T1 sequence (Q99683 1-1374)
The assay is described as follows: ASK1 (AUTO PHOS T838) assay, MSD format, in HEK-293T cells transfected with ASK1-V5. Type of assay: cell-based. The settings on record: ASK1 T838 auto phosphorylation in HEK-293T cells, 1 hr compound incubation; class symbols. On the procedure:
Example 112: Brief Description of ASK1(AUTO PHOS T838) Assay ASK1 T838 auto phosphorylation was measured in HEK-293T cells using MSD assay format. HEK 293T cells were seeded in 15 cm plates at a density of 18 million cells and 20 mL DMEM with 10% FBS, Pen/Strep media. The plates were incubated at 37° C. overnight. Media on plates was changed to OPTI-MEM, serum free media and cells were transfected with 9 μg of ASK1-V5 tagged full length plasmid using Lipofectamine 2000 (Invitrogen) and the plates were incubated at 37° C. overnight. Cells were trypsinized, counted on Nexcellometer and plated into 96 well tissue culture plates with 100,000 cells/well and 200 μL media. Cells were incubated for 4 hr at 37° C. then ASK1 compounds were added using a HP 300e. Compounds were tested at 20 μM with 3 fold, 10 point dilution points then incubated for 1 hr at 37° C. A lysis buffer (Cell Signaling) was prepared with protease and phosphatase inhibitor and maintained at 4° C. until use. Media from cells was discarded and 120 μL of cold lysis buffer was added to the cells, the plate was shaken 4° C. for 1 hr. Lysate was mixed using Apricot liquid handler; aspirating up and down 16 times at high speed using 50 μL volume. […] Plates were then incubated on a plate shaker overnight at 4° C. Plates were washed 3× with MSD wash buffer and 50 μL of rabbit anti-pASK1 T838 antibody was added to the wells and incubated for 2 hr at room temperature on a plate shaker. Plates were then washed and 50 μL of goat anti-rabbit sulfa-tag (1:500 dilution) was added to wells, and incubated for 1 hr at room temperature on a plate shaker. […] Plates were immediately read on a MSD Instrument Reader where chemoluminescence signal was measured. Data was analyzed using Graph Pad or Genedata, the data was normalized and plotted, % activity versus log of compound concentration. The IC50 values were obtained from a 4 parameter fit. The compounds described herein were tested for in the above cell-based assay.

Bounds are passed on as bounds.

By IC50 is commonly meant the concentration at which inhibition is half-maximal. A high value points to weaker potency in that assay. With `COc1nn(C)cc1C(=O)Nc1cccc(-c2nncn2[C@H](C)C(F)(F)F)n1` [Example 11, (R)-3-Methoxy-1-methyl-N-(6-(4-(1,1,1-trifluoropropan-2-yl)-4H-1,2,4-triazol-3-yl)pyridin-2-yl)-1H-pyrazole-4-carboxamide], the IC50 on ASK1/MAP3K5 is 100 to 1000 nM; in assay [1], at most 1000 nM.
For `COc1nn(C)cc1C(=O)Nc1cccc(-c2nncn2[C@@H](C)C(F)(F)F)n1` [Example 12, (S)-3-Methoxy-1-methyl-N-(6-(4-(1,1,1-trifluoropropan-2-yl)-4H-1,2,4-triazol-3-yl)pyridin-2-yl)-1H-pyrazole-4-carboxamide] the same measures were at most 100 nM and at most 1000 nM.
For `CCn1cc(C(=O)Nc2cccc(-c3nncn3C(C)C(F)(F)F)n2)c(OC)n1` (stereo not shown) [Example 13, 1-Ethyl-3-methoxy-N-(6-(4-(1,1,1-trifluoropropan-2-yl)-4H-1,2,4-triazol-3-yl)pyridin-2-yl)-1H-pyrazole-4-carboxamide], the half-inhibitory concentration (IC50) against ASK1/MAP3K5 was at most 100 nM; in assay [1], at most 1000 nM.
As to `COCc1nn(C)cc1C(=O)Nc1cccc(-c2nncn2[C@@H](C)C(F)(F)F)n1` [Example 14], the IC50 was 100 to 1000 nM against ASK1/MAP3K5 and at most 1000 nM in assay [1].
On to `CCn1cc(C(=O)Nc2cccc(-c3nncn3[C@@H](C)C(F)(F)F)n2)c(OC)n1` [Example 15, (S)-1-Ethyl-3-methoxy-N-(6-(4-(1,1,1-trifluoropropan-2-yl)-4H-1,2,4-triazol-3-yl)pyridin-2-yl)-1H-pyrazole-4-carboxamide], for which the half-inhibitory concentration (IC50) on ASK1/MAP3K5 was at most 100 nM; in assay [1], at most 1000 nM.
The like results for `CCOc1nn(C)cc1C(=O)Nc1cccc(-c2nncn2[C@@H](C)C(F)(F)F)n1` [Example 16, (S)-3-Ethoxy-1-methyl-N-(6-(4-(1,1,1-trifluoropropan-2-yl)-4H-1,2,4-triazol-3-yl)pyridin-2-yl)-1H-pyrazole-4-carboxamide] were, in that order, at most 100 nM and at most 1000 nM.
As to `COc1nn(C)cc1C(=O)Nc1cccc(-c2nncn2C2CCC2)n1` [Example 17, N-(6-(4-Cyclobutyl-4H-1,2,4-triazol-3-yl)pyridin-2-yl)-3-methoxy-1-methyl-1H-pyrazole-4-carboxamide], the IC50 against ASK1/MAP3K5 was at most 100 nM; in assay [1], at most 1000 nM.
`COc1nn(C)cc1C(=O)Nc1cccc(-c2nncn2C2CC2)n1` [Example 18, N-(6-(4-Cyclopropyl-4H-1,2,4-triazol-3-yl)pyridin-2-yl)-3-methoxy-1-methyl-1H-pyrazole-4-carboxamide]: the results for the IC50 (on ASK1/MAP3K5; in assay [1]) were at most 100 nM and at most 1000 nM, respectively.
Regarding `COc1nn(C)cc1C(=O)Nc1cccc(-c2nncn2C2CC(F)(F)C2)n1` [Example 19, N-(6-(4-(3,3-Difluorocyclobutyl)-4H-1,2,4-triazol-3-yl)pyridin-2-yl)-3-methoxy-1-methyl-1H-pyrazole-4-carboxamide], the IC50 against ASK1/MAP3K5 was at most 100 nM; in assay [1], at most 1000 nM.
Regarding `COc1nn(C)cc1C(=O)Nc1cccc(-c2nncn2C2CCCC2)n1` [Example 20, N-(6-(4-Cyclopentyl-4H-1,2,4-triazol-3-yl)pyridin-2-yl)-3-methoxy-1-methyl-1H-pyrazole-4-carboxamide], the IC50 was at most 100 nM at ASK1/MAP3K5 and at most 1000 nM in assay [1].
The like results for `COc1nn(C)cc1C(=O)Nc1cccc(-c2nncn2C(C)(C)C)n1` [Example 21, N-(6-(4-(tert-Butyl)-4H-1,2,4-triazol-3-yl)pyridin-2-yl)-3-methoxy-1-methyl-1H-pyrazole-4-carboxamide] were, in that order, at most 100 nM and at most 1000 nM.
The like results for `C[C@H](n1cnnc1-c1cccc(NC(=O)c2cn(C)nc2C(F)F)n1)C(F)(F)F` [Example 22, (S)-3-(Difluoromethyl)-1-methyl-N-(6-(4-(1,1,1-trifluoropropan-2-yl)-4H-1,2,4-triazol-3-yl)pyridin-2-yl)-1H-pyrazole-4-carboxamide] were, in that order, 1000 to 10000 nM and 1000 to 10000 nM.
The like results for `Cn1cc(C(=O)Nc2cccc(-c3nncn3C3(C(F)(F)F)CC3)n2)c(C(F)F)n1` [Example 24, 3-(Difluoromethyl)-1-methyl-N-(6-(4-(1-(trifluoromethyl)cyclopropyl)-4H-1,2,4-triazol-3-yl)pyridin-2-yl)-1H-pyrazole-4-carboxamide] were, in that order, at most 100 nM and at most 1000 nM.
In the case of `COc1nn(C)cc1C(=O)Nc1cccc(-c2nncn2C2(C(F)(F)F)CC2)n1` [Example 25, 3-Methoxy-1-methyl-N-(6-(4-(1-(trifluoromethyl)cyclopropyl)-4H-1,2,4-triazol-3-yl)pyridin-2-yl)-1H-pyrazole-4-carboxamide], the IC50 at ASK1/MAP3K5 was at most 100 nM; in assay [1] it was at most 1000 nM.
For `COc1nn(C)cc1C(=O)Nc1cccc(-c2nncn2C(C)C(F)F)n1` (stereo not shown) [Example 26, N-(6-(4-(1,1-Difluoropropan-2-yl)-4H-1,2,4-triazol-3-yl)pyridin-2-yl)-3-methoxy-1-methyl-1H-pyrazole-4-carboxamide] the same measures were at most 100 nM and at most 1000 nM.
With `COc1nn(C)cc1C(=O)Nc1cccc(-c2nncn2[C@@H](C)C(C)C)n1` [Example 29, (S)-3-Methoxy-1-methyl-N-(6-(4-(3-methylbutan-2-yl)-4H-1,2,4-triazol-3-yl)pyridin-2-yl)-1H-pyrazole-4-carboxamide], the concentration for half-maximal inhibition (IC50) was at most 100 nM on ASK1/MAP3K5 and at most 1000 nM in assay [1].
On to `COc1nn(C)cc1C(=O)Nc1cccc(-c2nncn2C2CCC2(F)F)n1` (stereo not shown) [Example 30, N-(6-(4-(2,2-Difluorocyclobutyl)-4H-1,2,4-triazol-3-yl)pyridin-2-yl)-3-methoxy-1-methyl-1H-pyrazole-4-carboxamide], for which the IC50 on ASK1/MAP3K5 is at most 100 nM; in assay [1], at most 1000 nM.
